Each structure is given as a SMILES string.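 Cultured in 96-well plates, cells were exposed to test compound for 48 hours across five concentrations. GI50 marks 50% less growth. TGI: total growth inhibition.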

Assay in all cases: NCI anticancer screen, dose series, 48 h
Experiment [1] relates to A549 NSCLC.
Experiment [2] concerns CAKI-1 renal.
For experiment [3], the system named is EKVX NSCLC.
Experiment [4] has as its system IGROV1 ovarian.
Experiment [5] has as its system MDA-MB-231 breast.
The subject of experiment [6] is MDA-MB-435.
For experiment [7], the system named is NCI/ADR-RES ovarian.
In experiment [8] the test system is SF-268 CNS.
Experiment [9] relates to SNB-19 CNS.
The subject of experiment [10] is T-47D breast.

On to `CC(=O)Nc1nc(C)c(-c2cc3c(c(S(C)(=O)=O)c2)C(=O)N([C@@H](C)C2CC2)C3)s1`, for which the GI50 was 28 µM in [1]; 17.6 µM in experiment [2]; 18.3 µM in experiment [3]; 27.2 µM in experiment [4]; 18.6 µM in [5]; 52.4 µM in [6]. Moreover, the GI50 in [7] was 53.6 µM; in experiment [8], 20.4 µM; in [9], 65.5 µM; in [10], 10.7 µM. Further, the TGI in [1] is over 100 µM; in [2] it was 55.4 µM; in experiment [3], 79.9 µM; in [4] it was over 100 µM; in [5], 69.6 µM; in experiment [6], over 100 µM. Further, the TGI is over 100 µM in experiment [7], over 100 µM in [8], over 100 µM in experiment [9] and 45 µM in [10].
As to `C=C(C)COC(=O)COCC(=O)OCC(=C)C`, the TGI in experiment [1], in [2], in experiment [3], in experiment [4], in experiment [5] and in [6] was over 100 µM throughout. Further, the TGI in experiment [7], in experiment [8], in experiment [9] and in [10] was over 100 µM each time.
In the case of `CCO/N=C(/CC)c1ccc(Br)s1`, the TGI in [1], in [2], in experiment [3], in [4], in experiment [5] and in experiment [6] was over 100 µM throughout. Further, the TGI in experiment [7], in experiment [8], in experiment [9] and in experiment [10] was over 100 µM each time.
On to `CC(=O)NC1=CC(=O)C=C(Cl)C1=O`, for which the TGI was over 100 µM in experiment [1]; over 100 µM in experiment [2]; over 100 µM in [3]; over 100 µM in experiment [4]; over 100 µM in experiment [5]; 32.2 µM in experiment [6]. The TGI in experiment [7], in experiment [8], in [9] and in [10] was over 100 µM in each case.
For `NC(=O)N=Nc1c2ccccc2n2[nH]ccc12`, the TGI in [1], in experiment [2], in [3], in [4], in [5] and in experiment [6] was over 100 µM each time. Also, the TGI in experiment [7] was over 100 µM; in experiment [8], over 100 µM; in experiment [9], over 100 µM; in experiment [10] it was 92.9 µM.
In the case of `COc1ccc(-c2c(C#N)cnc(N)c2-c2nc3cc(C)c(C)cc3[nH]2)cc1`, the GI50 was 6.54 µM in experiment [1]; 14.6 µM in experiment [2]; 15.8 µM in experiment [3]; 16 µM in [4]; 8.28 µM in experiment [5]; 1.95 µM in experiment [6]. Further, the GI50 in experiment [7] was 6.84 µM; in experiment [8] it was 9.8 µM; in [9], 7.06 µM; in experiment [10] it was 15.4 µM. In addition, the TGI in experiment [1] was 72.4 µM; in [2], over 100 µM; in experiment [3], over 100 µM; in [4], over 100 µM; in experiment [5], over 100 µM; in experiment [6], 5.39 µM. Besides, the TGI in [7] is over 100 µM; in experiment [8], 65.7 µM; in [9] it was 57.1 µM; in experiment [10] it was over 100 µM.
Turning to `Cc1cn(C2CC(O)C(Cn3nncc3Cn3ccc(=O)[nH]c3=O)O2)c(=O)[nH]c1=O` (stereo not given), the TGI in experiment [1], in experiment [2], in experiment [3], in [4], in [5] and in experiment [6] was over 100 µM throughout. Also, the TGI in experiment [7], in experiment [8], in [9] and in [10] was over 100 µM throughout.
Take `Nc1ccc2c(c1)S(=O)(=O)c1cc(N)ccc1-2`: the TGI in experiment [1], in [2], in [3], in [4], in experiment [5] and in [6] was over 100 µM throughout. Moreover, the TGI in experiment [7], in [8], in experiment [9] and in [10] was over 100 µM each time.
For the compound `Nc1c(O)c(C(=O)O)cc2ccccc12`, the TGI in experiment [1] was over 100 µM; in [2] it was 53.8 µM; in experiment [3], over 100 µM; in experiment [4], over 100 µM; in experiment [5], 28.8 µM; in experiment [6], 33.4 µM. Moreover, the TGI in experiment [7], in experiment [8], in experiment [9] and in experiment [10] was over 100 µM in each case.
For `COc1cc2c3c4c1OCc1c5c(cc(c1-4)CC3[N+](C)(C)CC2)OCO5` (stereo not given), the TGI in [1], in experiment [2], in experiment [3], in experiment [4], in experiment [5] and in experiment [6] was over 100 µM throughout. Besides, the TGI in experiment [7] was over 100 µM; in experiment [8], 16.9 µM; in experiment [9], 54 µM; in [10] it was over 100 µM.
For `COC(=O)C(=O)C(C(=O)C(=O)Nc1nc(=S)[nH][nH]1)c1nc2ccc([N+](=O)[O-])cc2[nH]c1=O` (stereo not given), the TGI in [1], in experiment [2], in [3], in [4], in experiment [5] and in experiment [6] was over 100 µM each time. Further, the TGI in experiment [7], in experiment [8], in [9] and in [10] was over 100 µM each time.
For the compound `CCCCCCCCC(=O)NCCN(CCN)C(=O)CCCCCCCC`, the TGI in [1] was 29.9 µM; in [2] it was 32.9 µM; in [3], 36.2 µM; in [4], 19.5 µM; in experiment [5], 10.3 µM; in [6], 29.7 µM. In addition, the TGI was found to be 31.1 µM in experiment [7], 17.5 µM in experiment [8], 17.7 µM in [9] and 32.9 µM in [10].

The values above are taken from PubChem BioAssay (NCI).
